According to US7521459B2, “Method for treating damaged skin” (Metabeauty Inc., priority 2003, dated 2009):

What was measured:
[1] = tested on: Patient A skin; assay: Daily topical application of a 5% imiquimod composition to Patient A skin, visual inspection; type: in vivo, human; conditions: after 8 weeks of daily application
From the text: In a first example of a method of the invention, a 5% imiquimod composition is applied to Patient A skin.
(§1) One skilled in the art is familiar with many methods and techniques for evaluating or monitoring changes in the skin. […] For example, changes in pigmentation, texture, and the presence of wrinkles or fine lines can all be monitored through visual assessment. In addition, a mexameter can be used to measure skin pigment, a tewameter and/or evaporometer can be used to measure water content, a laser doppler device can measure blood flow, and a visioscan or optical profilometer can measure surface texture, wrinkles, and/or roughness. Any one or any combination of these methods can be used, in particular, to measure, monitor, or detect changes in fine wrinkles, mottled hyperpigmentation, tactile roughness, lentigines, course or deep wrinkles, telangiectasia, skin laxity, keratinocytic atypia, melanocytic atypia, and/or dermal elastosis. Thus, the methods and composition of the invention can be used to treat and/or to evaluate possible treatment compositions where any one of these diseases or conditions are present or may be present.

[2] = tested on: entire face (precancerous lesions and normal, photodamaged skin); assay: Daily application of a pea size aliquot of 5% imiquimod to the entire face of Patient B; type: in vivo, human; conditions: pea size aliquot of 5% imiquimod every day to the entire face
Experimental: as §1, with “In a further example of a method of the invention, Patient B is treated with a pea size aliquot of 5% imiquimod every day to the entire face. […] One” for “One”, “elastosis.” for “elastosis. Thus, the methods and composition of the invention can be used to treat and/or to evaluate possible treatment compositions where any one of these diseases or conditions are present or may be present.”

**Q.** `CC(C)Cn1cnc2c(N)nc3ccccc3c21` [imiquimod, 1-isobutyl-1H-imidazo [4,5,-C] quinolin-4-amine] was tested. Which “appearance of clinical wrinkles by visual inspection” value [1] did it give?
**A.** decreases

**Q.** And the general skin appearance [1]?
**A.** generally improved and healthier appearance

**Q.** What about the most noticeable improvement [1] of the same compound?
**A.** pigmentation and texture

**Q.** And the “appearance of non-precancerous skin (normal, photodamaged skin)” value [2]?
**A.** looks smoother, with more regular pigmentation, and improvement of the fine wrinkles

**Q.** What about the “irritation of non-precancerous skin (normal, photodamaged skin)” value [2] of the same compound?
**A.** does not become irritated

**Q.** What about the “reaction of areas of the skin with precancerous lesions on the nose” value ([2]; biopsy shows BCC in precancerous regions) of the same compound?
**A.** became very red, eroded and irritated
